Measurements published in PubChem BioAssay AID1963982 (Molecular Pharmacology Branch, DTP, NCI, 2024).
One block for each compound: values may come before it.

Tested on: 313798-341-R-J2-PDC spheroids, viability
Assay: Anticancer human tumor 313798-341-R-J2-PDC patient-derived cervical squamous cell carcinoma cell line growth inhibition [PI3K]
Settings: spheroids with HUVEC and MSC; for IC50: curve of first compound; for viability, T/C: stronger effect = lower value
Description: Combinatorial screen of targeted agents with the PI3K inhibitors inavolisib, alpelisib, duvelisib, and copanlisib in multi-cell type tumor spheroids
A high-throughput screen of multi-cell type tumor spheroids was designed to identify active combinations of targeted small molecules and PI3K pathway inhibitors. Complex spheroids include a stromal component modeled by human endothelial cells (HUVEC) and fibroblasts modeled by human mesenchymal stem cells (MSCs). The concentration ranges selected for each drug and investigational agent were based upon clinically achievable concentrations if the clinical Cmax of the agent was known.
Compounds. The drugs and investigational agents: inavolisib (NSC800729), alpelisib (NSC765974), duvelisib (NSC772469), copanlisib (NSC816437), ipatasertib (NSC767898), afuresertib (NSC778305), talazoparib (NSC767125), sapanisertib (NSC764658), selumetinib (NSC741078), tovorafenib (DAY101, NSC766906), vemurafenib (NSC761431), ravoxertinib (NSC781343), sotorasib (NSC818433), MRTX1133 (NSC 836407), abemaciclib (NSC 768073), palbociclib (NSC758247), venetoclax (NSC 766270), SY5609 (NSC837396), enzalutamide (NSC755605), and darolutamide (NSC825331), were obtained from the National Cancer Institute (NCI) Developmental Therapeutics Program Chemical Repository. The FDA-approved anticancer drug set is available from the NCI Developmental Therapeutics Program. […] The stock solutions were prepared in dimethyl sulfoxide (DMSO, Sigma-Aldrich, St. Louis, MO, cat. D2650) at 800-fold the tested concentration and stored at -70 degrees C prior to their use. All drugs and investigational agents were tested over a range starting from a high concentration at or near the clinical Cmax and decreasing in half-log increments. If the clinical Cmax for an agent had not been determined, the highest concentration tested was 10 microM.
Cell Culture. All cells were maintained in an incubator at 37 degrees C and 5% CO2 with 95% humidity. The PDC lines were cultured according to standard operating procedures established by the NCI PDMR (https://pdmr.cancer.gov/sops/default.htm). All PDCs were thawed and cultured in Matrigel-coated flasks prepared with a working solution of 1X Ham's F-12 nutrient mix, without supplementation (Invitrogen, Waltham, MA, cat. 11765054), 100 U/mL penicillin-streptomycin (Invitrogen, cat. 15140122), and 2.5% Matrigel (Corning Inc., Corning, NY, cat. 354248) for the first three passages. The 354836-022-R-J1-PDC, 475296-252-R-J1-PDC, and 997726-040-R-J2-PDC lines were cultured in 6A media, which includes advanced DMEM/F-12 (Thermo Fisher Scientific, cat. 12634028), 10 mM HEPES (Thermo Fisher Scientific, cat. 15630080), 1X GlutaMAX supplement (Thermo Fisher Scientific, cat. 35050061), 0.1 mg/mL primocin (InvivoGen, San Diego, CA, cat. ant-pm-2), 10% defined fetal bovine serum, heat inactivated (HyClone Laboratories Inc., Logan, UT, cat. SH30070.03HI), 50% L-WRN conditioned media (ATCC, cat. CRL-3276), 1.25 mM N-Acetyl-L-cysteine (Sigma-Aldrich, cat. A9165), 10 mM nicotinamide (Sigma-Aldrich, cat. N0636), 1X B-27 supplement (Thermo Fisher Scientific, cat. 17504044), 1X N-2 supplement (Thermo Fisher Scientific, cat. 17502048), and 10 microM Y-27632 dihydrochloride (Tocris Bioscience, Bristol, United Kingdom, cat. 1254). The 624824-186-R-J2-PDC line was cultured in 6C/Colon 1B media, which includes all 6A media components plus 50 ng/mL human EGF recombinant protein (Thermo Fisher Scientific, cat. PHG0311). […]

[1] = second compound 0.00316 µM, first compound 0.0316 µM
[2] = second compound 0.00316 µM, first compound 0.1 µM
[3] = second compound 0.01 µM, first compound 0.0316 µM
[4] = second compound 0.01 µM, first compound 0.1 µM
[5] = second compound 0.0316 µM, first compound 0.0316 µM
[6] = second compound 0.0316 µM, first compound 0.1 µM
[7] = second compound 0.1 µM, first compound 0.0316 µM
[8] = second compound 0.1 µM, first compound 0.1 µM
[9] = second compound 0.316 µM, first compound 0.0316 µM
[10] = second compound 0.316 µM, first compound 0.1 µM
[11] = second compound 1 µM, first compound 0.0316 µM
[12] = second compound 1 µM, first compound 0.1 µM
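Also: spheroids exposed to compounds for seven days.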
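For viability, T/C in this document: 100% = DMSO vehicle control viability.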

IC50 (second compound 0.00316 µM): 70.2 nM
IC50 (second compound 0.01 µM): 66.3 nM
IC50 (second compound 0.0316 µM): 48.8 nM
IC50 (second compound 0.1 µM): 28.2 nM
IC50 (second compound 0.316 µM): 14.2 nM
IC50 (second compound 1 µM): 1.85 nM
Compound: CC(C)n1nc(-c2ccc3oc(N)nc3c2)c2c(N)ncnc21 + CC(Nc1ccc2c(c1)OCCn1cc(N3C(=O)OCC3C(F)F)nc1-2)C(N)=O
viability, T/C (second compound 0.00316 µM, first compound 0.000316 µM): 90.9%
viability, T/C (second compound 0.00316 µM, first compound 0.001 µM): 99%
viability, T/C (second compound 0.00316 µM, first compound 0.00316 µM): 119%
viability, T/C (second compound 0.00316 µM, first compound 0.01 µM): 92.8%
viability, T/C [1]: 78%
viability, T/C [2]: 37.8%
viability, T/C (second compound 0.01 µM, first compound 0.000316 µM): 83.8%
viability, T/C (second compound 0.01 µM, first compound 0.001 µM): 90.4%
viability, T/C (second compound 0.01 µM, first compound 0.00316 µM): 100%
viability, T/C (second compound 0.01 µM, first compound 0.01 µM): 103%
viability, T/C [3]: 73.2%
viability, T/C [4]: 37.2%
viability, T/C (second compound 0.0316 µM, first compound 0.000316 µM): 94.6%
viability, T/C (second compound 0.0316 µM, first compound 0.001 µM): 92.3%
viability, T/C (second compound 0.0316 µM, first compound 0.00316 µM): 92.1%
viability, T/C (second compound 0.0316 µM, first compound 0.01 µM): 92.6%
viability, T/C [5]: 60.6%
viability, T/C [6]: 32.4%
viability, T/C (second compound 0.1 µM, first compound 0.000316 µM): 95.6%
viability, T/C (second compound 0.1 µM, first compound 0.001 µM): 97.4%
viability, T/C (second compound 0.1 µM, first compound 0.00316 µM): 92.2%
viability, T/C (second compound 0.1 µM, first compound 0.01 µM): 69.3%
viability, T/C [7]: 49.6%
viability, T/C [8]: 33.2%
viability, T/C (second compound 0.316 µM, first compound 0.000316 µM): 83.4%
viability, T/C (second compound 0.316 µM, first compound 0.001 µM): 70.9%
viability, T/C (second compound 0.316 µM, first compound 0.00316 µM): 64.8%
viability, T/C (second compound 0.316 µM, first compound 0.01 µM): 54.7%
viability, T/C [9]: 43.5%
viability, T/C [10]: 25.1%
viability, T/C (second compound 1 µM, first compound 0.000316 µM): 55.3%
viability, T/C (second compound 1 µM, first compound 0.001 µM): 53.1%
viability, T/C (second compound 1 µM, first compound 0.00316 µM): 45%
viability, T/C (second compound 1 µM, first compound 0.01 µM): 42.1%
viability, T/C [11]: 32.9%
viability, T/C [12]: 14.3%

IC50 (second compound 0.00316 µM): 6000 nM
IC50 (second compound 0.01 µM): 6000 nM
IC50 (second compound 0.0316 µM): 5770 nM
IC50 (second compound 0.1 µM): 4970 nM
IC50 (second compound 0.316 µM): 3560 nM
IC50 (second compound 1 µM): 1670 nM
Compound: CCCS(=O)(=O)Nc1ccc(F)c(C(=O)c2c[nH]c3ncc(-c4ccc(Cl)cc4)cc23)c1F + CC(Nc1ccc2c(c1)OCCn1cc(N3C(=O)OCC3C(F)F)nc1-2)C(N)=O
viability, T/C [1]: 90.6%
viability, T/C [2]: 98.7%
viability, T/C (second compound 0.00316 µM, first compound 0.316 µM): 88.4%
viability, T/C (second compound 0.00316 µM, first compound 1 µM): 114%
viability, T/C (second compound 0.00316 µM, first compound 3.16 µM): 97.9%
viability, T/C (second compound 0.00316 µM, first compound 10 µM): 11.9%
viability, T/C [3]: 99.1%
viability, T/C [4]: 95.8%
viability, T/C (second compound 0.01 µM, first compound 0.316 µM): 98.7%
viability, T/C (second compound 0.01 µM, first compound 1 µM): 106%
viability, T/C (second compound 0.01 µM, first compound 3.16 µM): 104%
viability, T/C (second compound 0.01 µM, first compound 10 µM): 9.37%
viability, T/C [5]: 107%
viability, T/C [6]: 97.8%
viability, T/C (second compound 0.0316 µM, first compound 0.316 µM): 97.7%
viability, T/C (second compound 0.0316 µM, first compound 1 µM): 97.7%
viability, T/C (second compound 0.0316 µM, first compound 3.16 µM): 92.7%
viability, T/C (second compound 0.0316 µM, first compound 10 µM): 10.9%
viability, T/C [7]: 104%
viability, T/C [8]: 92.6%
viability, T/C (second compound 0.1 µM, first compound 0.316 µM): 84.9%
viability, T/C (second compound 0.1 µM, first compound 1 µM): 92.6%
viability, T/C (second compound 0.1 µM, first compound 3.16 µM): 76%
viability, T/C (second compound 0.1 µM, first compound 10 µM): 9.75%
viability, T/C [9]: 74.6%
viability, T/C [10]: 82.1%
viability, T/C (second compound 0.316 µM, first compound 0.316 µM): 79.7%
viability, T/C (second compound 0.316 µM, first compound 1 µM): 73.6%
viability, T/C (second compound 0.316 µM, first compound 3.16 µM): 54.9%
viability, T/C (second compound 0.316 µM, first compound 10 µM): 8.5%
viability, T/C [11]: 50.5%
viability, T/C [12]: 59.1%
viability, T/C (second compound 1 µM, first compound 0.316 µM): 59.5%
viability, T/C (second compound 1 µM, first compound 1 µM): 58%
viability, T/C (second compound 1 µM, first compound 3.16 µM): 41.6%
viability, T/C (second compound 1 µM, first compound 10 µM): 8.44%
